From the OPERA property sets (Mansouri et al. 2018)

SMILES | logP
Oc1c(F)cccc1F | 1.96
COC(=O)c1ccc(Br)cc1 | 2.95
Cc1cccc(C)c1C(=O)O | 2.21
COC(=O)c1cccc(C)c1 | 2.77
CC(=O)Oc1c(Cl)cccc1Cl | 2.94
COC(=O)c1c(C)cccc1C | 2.55
COc1cccc(OC(C)=O)c1 | 1.61
NC(=O)c1ccccc1[N+](=O)[O-] | -0.12
CCc1cccc(CC)c1O | 3.03
Cc1cccc(Cl)c1O | 2.8
CSc1ccccc1C(N)=O | 0.71
COC(=O)c1ccccc1OC | 2.04
COC(=O)c1c(Cl)cccc1Cl | 2.79
Oc1c(Br)cccc1Br | 3.36
COC(=O)c1c(F)cccc1F | 1.96
O=C(O)c1c(F)cccc1F | 1.59
COC(=O)c1ccccc1I | 2.74
COC(=O)c1ccc(C)cc1 | 2.7
Cc1cccc(Cl)c1C(=O)O | 2.31
COC(=O)c1cccc([N+](=O)[O-])c1 | 1.89

Now from value to compound:

logP | SMILES
1.66 | COC(=O)c1ccccc1[N+](=O)[O-]
0 | N#Cc1ccccc1C(N)=O
2.85 | COC(=O)c1cccc(Cl)c1
1.47 | Cc1nc(N)sc1C(=O)CCN(C)C
3.4 | CCc1cccc(CC)c1OC(C)=O
1.82 | COC(=O)c1ccccc1F
2.08 | CCOc1cccc(OC(C)=O)c1
1.89 | COC(=O)c1ccc([N+](=O)[O-])cc1
2.45 | CCc1cccc(OC(C)=O)c1
2.21 | COC(=O)c1c(Cl)cccc1[N+](=O)[O-]
2.32 | CC(=O)Oc1c(C)cccc1C
1.56 | O=C(O)c1c(Cl)cccc1[N+](=O)[O-]
2.42 | COC(=O)c1c(F)cccc1Cl
2.28 | COC(=O)c1ccc(F)cc1
